Assays:
[1] = tested on: LH; assay: Plasma LH in ovariectomized female rats (radioimmunoassay); format: in vivo, Sprague Dawley rats; conditions: all dosage levels tested: 0.003, 0.01 and 0.03 mg/kg i.v. daily for 5 days
Procedure: (§1) After recovery from surgery, ovariectomized female rats were divided into four groups and treated once a day for five days intravenously, via a bolus injection through the tail vein, as follows: (1) control, 27% HPβCD solution; (2) 0.003 mg/kg E2-CDS dissolved in 27% HPβCD solution; (3) 0.01 mg/kg E2-CDS dissolved in 27% HPβCD solution; and (4) 0.03 mg/kg E2-CDS dissolved in 27% HPβCD solution. A minimal number of ovariectomized (8 to 12) females were used per group. Intravenous treatments either with E2-CDS or HPβCD (controls) were carried out daily for 5 days beginning 2 days prior to the first day of behavior observations, in a volume of 0.05 mL/100 g body weight.
(§2) An experienced and active male rat was placed in the arena 5 minutes prior to the female. […] The lordosis quotient (LQ) expresses the estrogen effect on sexual receptivity and was calculated as follows: LQ=100×number of lordoses/10 mounts The observation of the sexual behavior of each female was carried out, in the case of E2-CDS, every day for 22 days; in the case of EB, investigations were carried out every day for 10 days. […] Citrated blood samples were taken by retro-orbital sinus puncture under light ether anesthesia. The samples were stored at 4EC for one hour, then centrifuged at 1000 g for 10 minutes. Plasma was separated and stored at −80EC until assayed. Plasma LH concentrations from individual samples were measured by double antibody radioimmunoassay kits obtained from Amersham Pharmacia Biotech, Rome, Italy. […] The limit of detection was 15 pg/mL.
(§3) Behavioral changes were analyzed using the Mann-Whitney U test (Siegel, Nonparametric Statistics for the Behavioral Sciences, New York; McGraw-Hill Book Company, Inc., 1956). The Fisher exact test was used for percentage comparisons (Zar, Biostatistical Analysis, Prentice Hall, Inc., Englewood Cliffs, N.J., 1974). Serum LH data were analyzed for each time and treatment group by analysis of variance (ANOVA) followed by Bonferroni posthoc test.

[2] = tested on: ovariectomized female rats; assay: Lordosis quotient, female rat sexual behavior after ovariectomy; format: in vivo, Sprague Dawley rats
Procedure: Adult female Sprague Dawley rats (220-250 g) from Charles River Hungary Ltd., Godollo, Hungary, were used. Animals were kept in community cages (4 animals/cage) in a climate-controlled room (23∀2EC, 50-60% humidity), with a 14 hour light, 10 hour dark cycle of artificial lighting, using reversed light/dark cycle. Food and water were available ad libitum.
After a minimum five-day acclimatization period, animals were ovariectomized under ether anesthesia, then were left to recover for 3 weeks before testing (reconvalescence). All animals were treated in accordance with the guidelines of the European Communities Council Directive (86/609/EEC) and studies were permitted by the Institutional Animal Care Commission.
Estradiol benzoate and progesterone were obtained from Sigma Chemical Co. Inc., Budapest, Hungary. 2-Hydroxypropyl-β-cyclodextrin was purchased from Cerestar Inc., Hammond, Ind., US. […] E2-CDS as a 3% complex with HPβCD (E2-CDS-CD) was dissolved in distilled water and diluted with 27% HPβCD solution. E2-CDS-CD was synthesized by Alchem Laboratories Corporation, Alachua, Fla., US, using the procedure of Example 2 above.
as §1
The behavior test was conducted in a plexiglass observation cage during the dark cycle. During behavioral observations, only a dim red light was on.
as §2, §3

[3] = tested on: corticosterone; assay: Suppression of stress-induced elevation of corticosterone (15-minute restraint stress); format: in vivo, Sprague-Dawley rats; conditions: 15-minute stress
Procedure: (§4) Ability to suppress stress-induced ACTH and corticosterone is a measure of the anti-inflammatory action of a test substance.
(§5) Adult male Sprague-Dawley rats (Charles River Breeding Laboratories, Wilmington, Mass.) weighing 300-325 grams were selected for use in this study. The rats were housed individually in wire-bottomed cages in a climate-controlled room (23° C.) with a 12 hour light/12 hour dark cycle of artificial lighting. The animals were maintained on this light cycle for 10 days prior to the start of the experiment. Purina cat chow and tap water were provided ad libitum.
(§6) Rats then were subjected to either no stress or light restraint stress for 5 or 15 minutes on days 0, 1, 3, 5 or 7. Each experimental group consisted of six animals. For light restraint testing, the rats were placed in individual wire-mesh cages which permitted limited movement in a lateral or longitudinal direction. Nonstressed control rats were gently removed from their cages and immediately sacrificed. All animals were killed immediately at the end of the stress periods by decapitation. Trunk blood was rapidly collected in iced tubes containing EDTA, and the plasma was separated by cold centrifugation and stored at −80° C. until radioimmunoassay.
Plasma corticosterone was measured in duplicate by radioimmunoassay using a double-antibody technique (Cambridge Medical Tech., Inc., Billerica, Mass.). The intra-assay coefficient of variation was <2.63% and the interassay coefficient of variation was 7.1%. The limit of sensitivity for the assay was 0.39 ng/mL of plasma.
(§7) The significance of differences among mean values was determined by analysis of variance (Anova) and Student-Newman-Keuls tests. The level of probability for all tests was 0.05.

[4] = tested on: ACTH; assay: Suppression of stress-induced elevation of plasma ACTH (light restraint stress); format: in vivo, Sprague-Dawley rats
Procedure: as §4, §5, §6
Plasma ACTH was measured in duplicate by radioimmunoassay using a double-antibody technique (Diagnostic Products Corp., Los Angeles, Calif.). The intra-assay coefficient of variation was 8.25%; and the limit of sensitivity for the assay was 17 pg/mL of plasma.
as §7

[5] = 0.003 mg/kg i.v. once a day for 5 days
[6] = 0.01 mg/kg i.v. once a day for 5 days
[7] = 0.03 mg/kg i.v. once a day for 5 days

| Structure (SMILES) | effect on plasma LH levels [1] | effect on lordosis quotient [2, 5] | period of the LQ effect [2, 5] [days] | statistical significance of LQ effect [2, 5] | effect on lordosis quotient LQ [2, 6] | period of the LQ effect [2, 6] | statistical significance of LQ effect [2, 6] | effect on lordosis quotient LQ [2, 7] | maximal value of lordosis quotient (LQ) [2, 7] | period over which the LQ effect lasted [2, 7] | suppression of corticosterone response to stress ([3]; day 3, single i.v. DEX-CDS 10 mg/kg or DEX 7.65 mg/kg) [%] | suppression of corticosterone response to stress ([3]; day 5, single i.v. DEX-CDS 10 mg/kg) [%] | suppression of corticosterone response to stress ([3]; day 7, single i.v. DEX-CDS 10 mg/kg) [%] | effect on stress-related elevations in ACTH ([4]; 5-minute stress, days 1 and 3, single i.v. DEX-CDS 10 mg/kg or DEX 7.65 mg/kg (equimolar)) | day through which suppression of ACTH elevations continued ([4]; 5-minute stress, single i.v. DEX-CDS 10 mg/kg) [days] | effect on stress-related rises in ACTH ([4]; 15-minute stress, day 3, single i.v. DEX-CDS 10 mg/kg or DEX 7.65 mg/kg) | duration of suppression of elevations in ACTH ([4]; 15-minute stress, single i.v. DEX-CDS 10 mg/kg) |
| --- | --- | --- | --- | --- | --- | --- | --- | --- | --- | --- | --- | --- | --- | --- | --- | --- | --- |
| C[C@]12CC[C@@H]3c4ccc(OC(=O)c5ccccc5)cc4CC[C@H]3[C@@H]1CC[C@@H]2O [estradiol benzoate, reference compound] | none of the tested dosages of estradiol benzoate gave statistically significant LH suppression | slightly enhanced | 3 to 7 | not statistically significant | slightly increased | day 3 to day 10 | not statistically significant | significantly enhanced | 27.3 | day 3 to day 8 |  |  |  |  |  |  |  |
| C[C@@H]1C[C@H]2[C@@H]3CCC4=CC(=O)C=C[C@]4(C)[C@@]3(F)[C@@H](O)C[C@]2(C)[C@@]1(O)C(=O)COC(=O)C1=CN(C)C=CC1 [DEX-CDS, 9-fluoro-11β,17-dihydroxy-16α-methyl-21-{[(1-methyl-1,4-dihydropyridin-3-yl)carbonyl]oxy}pregna-1,4-diene-3,20-dione] |  |  |  |  |  |  |  |  |  |  | 33 | 37 | 56 | blocked | 5 | blocked | at least 7 days |

— US20050059615A1, “Transmucosal dosage forms for brain-targeted steroid chemical delivery systems” (priority 2003, published 2005)
